Experimental data published in patent US8507464B2, “Phosphoramidate alkylator prodrugs” (Threshold Pharmaceuticals, Inc., priority 2005, dated 2013).
Where two headings read alike, the source gives them in different places.

Legend:
[1] = logP (partitioning between octanol and water); type: physicochemical; conditions: read-out: logP
Text: As used herein “LogP” means a measure of lipophilicity of a substance determined based on the partitioning of the substance betwen octanol and water.

HT29 cells = test: Cell cycle distribution (flow cytometry); type: cell-based, human
Procedure: (§1) Cells ([…], PC3 and HT29) were seeded at a density of 1.0×10^6 cells/3 ml medium per 60 mm dish. After 24 h attachment, cells were exposed to Compound 25 at the indicated concentrations for 2 h under either normoxia (air) or anoxia (nitrogen). Cells were washed twice, and incubated for an additional 22 h in fresh medium. Cells were trypsinized, centrifuged, and fixed in 75% ethanol at least for 24 h at −20° C. Cell cycle distribution was determined using Guava Cell Cycle reagent (Guava, Hayward, Calif.) by flow cytometry (Guava, Hayward, Calif.).

PC3 cells [2] = test: Cell cycle distribution (flow cytometry); type: cell-based, human
Procedure: as §1

HT29 monolayer = test: Clonogenic survival of monolayer cells (Example 35); type: cell-based; conditions: Homo sapiens
HT29 spheroids = test: Spheroid model, clonogenic survival; type: cell-based; conditions: Homo sapiens, HT-29, read-out: IC90 HT29 Spheroid 10% O2
spheroids = test: Spheroid combination with cisplatin or daunorubicin, clonogenic survival; type: cell-based, human; conditions: Homo sapiens, 2 h exposure
Procedure: The phosphoramidate alkylator prodrug was combined simultaneously with cisplatin or daunorubicin and the spreroids exposed for 2 h to the combination, followed by measurement of clonogenic survival.

[3] = system: rat (RLM) liver microsomal proteins; test: Metabolic stability in liver microsomal protein; type: in vitro ADME; conditions: 5 μM
CYP2D6 = CYP2D6 (Homo sapiens, UniProt P10635); test: in vitro; conditions: pH 7.4, probe dextromethorphan
Procedure: (§2) A control reaction with no inhibitor was also prepared. After a suitable incubation at 37° C., the reactions were terminated by the addition of […] of 10% formic acid in water ([…] of acetonitrile for 2C19). […] Each assay was performed in duplicate.

CYP3A4 = CYP3A4 (Homo sapiens, UniProt P08684); test: in vitro
Procedure: as §2

[4] = Preliminary toxicity in mice (Example 56); type: in vivo
Text: It is recognized that efficacious molecules for treatment of human diseases including cancer may be toxic at doses near or sometime much greater than doses necessary to achieve beneficial effects. To determine appropriate dose and route of administering such a compound, it is necessary to understand its toxicity. Routinely, initial approaches to determining the toxic dose involve the use of rodents such as mice to provide preliminary data that might support the design of similar studies in larger animals and humans. Test compounds (Compounds 24, 25 and 36) were tested in mice as preliminary experiments for determining doses to be used in larger animals. […] These doses selected represent an approximation of doses that might be used in larger animals such as rats and dogs for the purpose of confirming that such toxicities exist and for predicting if renal function should be measured in humans.

NCI-H460 cells = test: Clonogenic assay - oxygen dependence; conditions: Homo sapiens
PC3 cells [5] = test: Clonogenic assay - oxygen dependence; conditions: Homo sapiens
AA8 = test: Clonogenic survival - DNA mutant repair cells; conditions: Cricetulus griseus
PC3 cells [6] = test: Antiproliferation assay (Alamar Blue), anoxia vs air; conditions: Homo sapiens, PC-3, 2 h

Sequence of CYP3A4 (P08684 whole entry): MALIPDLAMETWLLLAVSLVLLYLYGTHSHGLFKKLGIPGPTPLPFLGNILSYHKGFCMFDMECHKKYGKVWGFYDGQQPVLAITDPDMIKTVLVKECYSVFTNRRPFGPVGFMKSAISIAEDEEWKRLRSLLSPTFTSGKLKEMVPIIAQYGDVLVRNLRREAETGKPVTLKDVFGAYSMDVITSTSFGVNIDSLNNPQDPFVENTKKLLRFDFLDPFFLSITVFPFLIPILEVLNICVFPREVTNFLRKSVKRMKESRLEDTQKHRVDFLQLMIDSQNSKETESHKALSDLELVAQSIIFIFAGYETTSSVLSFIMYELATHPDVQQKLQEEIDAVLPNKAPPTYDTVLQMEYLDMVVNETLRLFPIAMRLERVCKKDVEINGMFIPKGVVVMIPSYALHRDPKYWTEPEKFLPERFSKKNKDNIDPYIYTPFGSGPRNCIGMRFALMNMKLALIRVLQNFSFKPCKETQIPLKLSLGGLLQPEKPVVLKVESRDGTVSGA
Sequence of CYP2D6 (P10635 whole entry): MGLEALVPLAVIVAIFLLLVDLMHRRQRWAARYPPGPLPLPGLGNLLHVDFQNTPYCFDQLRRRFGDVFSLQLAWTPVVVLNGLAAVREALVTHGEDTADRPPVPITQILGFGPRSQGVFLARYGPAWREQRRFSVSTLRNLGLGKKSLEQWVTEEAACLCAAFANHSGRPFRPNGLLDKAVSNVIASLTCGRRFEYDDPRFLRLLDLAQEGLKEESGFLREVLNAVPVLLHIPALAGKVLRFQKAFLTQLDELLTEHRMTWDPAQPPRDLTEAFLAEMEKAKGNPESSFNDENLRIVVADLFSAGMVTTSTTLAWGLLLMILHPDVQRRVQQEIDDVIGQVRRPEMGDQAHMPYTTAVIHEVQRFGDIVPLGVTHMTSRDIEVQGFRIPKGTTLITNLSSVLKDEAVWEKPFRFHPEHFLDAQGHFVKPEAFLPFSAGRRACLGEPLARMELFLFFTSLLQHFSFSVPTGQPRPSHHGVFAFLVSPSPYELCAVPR

SMILES: Cn1c(COP(=O)(NCCBr)NCCBr)cnc1[N+](=O)[O-] [Compound 25]
- logP [1]: < 0
- Cell cycle G0/G1 (HT29 cells; 0.005 μM, Air): 52
- Cell cycle G2/M (HT29 cells; 0.005 μM, Air): 35
- Cell cycle S (HT29 cells; 0.005 μM, Air): 12
- Cell cycle G0/G1 (HT29 cells; 0.005 μM, Nitrogen): 46
- Cell cycle G2/M (HT29 cells; 0.005 μM, Nitrogen): 40
- Cell cycle S (HT29 cells; 0.005 μM, Nitrogen): 14
- Cell cycle G0/G1 (HT29 cells; 0.05 μM, Air): 50
- Cell cycle G2/M (HT29 cells; 0.05 μM, Air): 35
- Cell cycle S (HT29 cells; 0.05 μM, Air): 15
- Cell cycle G0/G1 (HT29 cells; 0.05 μM, Nitrogen): 37
- Cell cycle G2/M (HT29 cells; 0.05 μM, Nitrogen): 52
- Cell cycle S (HT29 cells; 0.05 μM, Nitrogen): 11
- Cell cycle G0/G1 (HT29 cells; 0.5 μM, Air): 48
- Cell cycle G2/M (HT29 cells; 0.5 μM, Air): 37
- Cell cycle S (HT29 cells; 0.5 μM, Air): 14
- Cell cycle G0/G1 (HT29 cells; 0.5 μM, Nitrogen): 8
- Cell cycle G2/M (HT29 cells; 0.5 μM, Nitrogen): 84
- Cell cycle S (HT29 cells; 0.5 μM, Nitrogen): 8
- Cell cycle G0/G1 (HT29 cells; 5 μM, Air): 47
- Cell cycle G2/M (HT29 cells; 5 μM, Air): 39
- Cell cycle S (HT29 cells; 5 μM, Air): 13
- Cell cycle G0/G1 (HT29 cells; 5 μM, Nitrogen): 14
- Cell cycle G2/M (HT29 cells; 5 μM, Nitrogen): 36
- Cell cycle S (HT29 cells; 5 μM, Nitrogen): 50
- Cell cycle G0/G1 (PC3 cells [2]; 0.0005 μM, Air): 55
- Cell cycle G2/M (PC3 cells [2]; 0.0005 μM, Air): 32
- Cell cycle S (PC3 cells [2]; 0.0005 μM, Air): 12
- Cell cycle G0/G1 (PC3 cells [2]; 0.0005 μM, Nitrogen): 59
- Cell cycle G2/M (PC3 cells [2]; 0.0005 μM, Nitrogen): 31
- Cell cycle S (PC3 cells [2]; 0.0005 μM, Nitrogen): 10
- Cell cycle G0/G1 (PC3 cells [2]; 0.005 μM, Air): 52
- Cell cycle G2/M (PC3 cells [2]; 0.005 μM, Air): 34
- Cell cycle S (PC3 cells [2]; 0.005 μM, Air): 13
- Cell cycle G0/G1 (PC3 cells [2]; 0.005 μM, Nitrogen): 56
- Cell cycle G2/M (PC3 cells [2]; 0.005 μM, Nitrogen): 32
- Cell cycle S (PC3 cells [2]; 0.005 μM, Nitrogen): 11
- Cell cycle G0/G1 (PC3 cells [2]; 0.05 μM, Air): 55
- Cell cycle G2/M (PC3 cells [2]; 0.05 μM, Air): 33
- Cell cycle S (PC3 cells [2]; 0.05 μM, Air): 12
- Cell cycle G0/G1 (PC3 cells [2]; 0.05 μM, Nitrogen): 43
- Cell cycle G2/M (PC3 cells [2]; 0.05 μM, Nitrogen): 44
- Cell cycle S (PC3 cells [2]; 0.05 μM, Nitrogen): 12
- Cell cycle G0/G1 (PC3 cells [2]; 0.5 μM, Air): 55
- Cell cycle G2/M (PC3 cells [2]; 0.5 μM, Air): 32
- Cell cycle S (PC3 cells [2]; 0.5 μM, Air): 13
- Cell cycle G0/G1 (PC3 cells [2]; 0.5 μM, Nitrogen): 21
- Cell cycle G2/M (PC3 cells [2]; 0.5 μM, Nitrogen): 46
- Cell cycle S (PC3 cells [2]; 0.5 μM, Nitrogen): 33
- Cell cycle G0/G1 (PC3 cells [2]; 5 μM, Air): 55
- Cell cycle G2/M (PC3 cells [2]; 5 μM, Air): 32
- Cell cycle S (PC3 cells [2]; 5 μM, Air): 12
- Cell cycle G0/G1 (PC3 cells [2]; 5 μM, Nitrogen): 35
- Cell cycle G2/M (PC3 cells [2]; 5 μM, Nitrogen): 26
- Cell cycle S (PC3 cells [2]; 5 μM, Nitrogen): 38
- IC90 (HT29 monolayer; HT-29, read-out: IC90 HT29 Monolayer 0.6% O2): 3000 nM
- IC90 (HT29 monolayer; HT-29, read-out: IC90 HT29 Monolayer Air): 40000 nM
- IC90 (HT29 monolayer; HT-29, read-out: IC90 HT29 Monolayer N2): 200 nM
- IC90 (HT29 spheroids): 29 µM
- IC50 (spheroids; read-out: IC50 (μM), spheroids, cisplatin combination experiment): 12 µM
- IC50 (spheroids; read-out: IC50 (μM), spheroids, daunorubicin combination experiment): 9 µM
- Metabolic stability (% at 30 min) RLM ([3]; Table 1, first study): 84%
- Metabolic stability (% at 30 min) RLM ([3]; Table 2A, second study): 137%
- IC50 (CYP2D6): > 50 µM
- IC50 (CYP3A4; pH 7.4, IC50 3A4 Midazolam, probe substrate midazolam): > 50 µM
- IC50 (CYP3A4; pH 7.4, IC50 3A4 Nifedipine, probe substrate nifedipine): > 50 µM
- IC50 (CYP3A4; pH 7.4, IC50 3A4 Testosterone, probe substrate testosterone): > 50 µM
- white blood cells [4]: Transient reductions in white blood cells
- toxicity at 300 mg/kg single dose ([4]; 300 mg/kg single dose): renal toxicities such as tubular necrosis and protein spillage into the urine
- toxicity at lower doses (100 and 200 mg/kg) ([4]; 100 and 200 mg/kg): little toxicity
- IC90 (NCI-H460 cells; NCI-H460, read-out: IC90 H460 0.1% O2): 400 nM
- IC90 (NCI-H460 cells; NCI-H460, read-out: IC90 H460 0.6% O2): 5000 nM
- IC90 (NCI-H460 cells; NCI-H460, read-out: IC90 H460 Air): 30000 nM
- IC90 (NCI-H460 cells; NCI-H460, read-out: IC90 H460 N2): 100 nM
- IC90 (PC3 cells [5]; PC-3, read-out: IC90 PC3 Air): 50 µM
- IC90 (PC3 cells [5]; PC-3, read-out: IC90 PC3 N2): 0.3 µM
- IC90 (AA8; CHO-AA8, read-out: IC90 AA8 Air): > 300000 nM
- IC90 (AA8; CHO-AA8, read-out: IC90 AA8 N2): 850 nM
- IC50 (PC3 cells [6]; read-out: IC50 PC3 Air): > 100000 nM
- IC50 (PC3 cells [6]; read-out: IC50 PC3 Anoxia): 600 nM

SMILES: Cn1c(COP(=O)(NCCCl)NCCCl)cnc1[N+](=O)[O-] [Compound 36]
- MTD (in vivo): 400 mg/kg
